Assay results taken from patent US11535585B2, “Nitrobenzyl derivatives of anti-cancer agents” (OBI PHARMA, INC., priority 2015, dated 2022).
Where two headings read alike, the source gives them in different places.

How the values were obtained:
[1] = target: T1, AKR1C3 (Homo sapiens, UniProt P42330); conditions: cited from earlier work
T1 sequence (P42330 1-323): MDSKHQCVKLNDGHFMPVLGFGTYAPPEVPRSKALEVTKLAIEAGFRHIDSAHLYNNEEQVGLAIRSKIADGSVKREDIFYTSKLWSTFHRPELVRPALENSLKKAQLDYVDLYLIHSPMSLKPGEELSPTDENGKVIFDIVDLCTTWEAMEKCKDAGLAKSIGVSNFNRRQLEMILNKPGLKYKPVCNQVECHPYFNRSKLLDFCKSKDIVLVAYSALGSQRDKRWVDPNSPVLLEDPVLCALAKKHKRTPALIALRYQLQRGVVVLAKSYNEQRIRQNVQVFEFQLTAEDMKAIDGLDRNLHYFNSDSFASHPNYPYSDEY

[2] = tested as water soluble phosphate prodrug PR 104P; cited from earlier work
[3] = test system: H460 non cell lung cancer human tumor cell line; assay: In vitro human tumor cell line cytotoxicity / proliferation assay (AlamarBlue) with and without AKR1C3 inhibitor; assay type: cell-based
Procedure: In vitro proliferation data on the H460 […] human tumor cell line is determined based on IC50 measured by exposure of compounds at various concentrations for 2 hrs followed by a wash step and addition of fresh media followed by growth and cell viability staining and comparison to a media only treated control.
Specifically, exponentially growing cells are seeded at a density of 4×10^3 cells per well in a 96 well plate and incubated at 37° C. in 5% CO2, 95% air and 100% relative humidity for 24 hours prior to addition of test compounds. Compounds are solubilized in 100% DMSO at 200 times the desired final test concentration. At the time of drug addition, compounds are further diluted to 4 times the desired final concentration with complete medium. Aliquots of 50 μl of compound at specified concentrations are added to microtiter wells already containing 150 μl of medium, resulting in the final drug concentration reported. After drug addition the plates are incubated 72 hrs at 37° C., 5% CO2, 95% air and 100% relative humidity. At the end of this incubation, the viable cells are quantified using the AlamarBlue assay. The drug concentration resulting in growth inhibition of 50% (IC50) is calculated using Prism software (Irvine, Calif.).
Cell proliferation were performed in the presence (3 micromolar) and absence of a specific inhibitor of the AKR 1C3 enzyme. The case of added inhibitor was added to cell culture 2 hours prior to compound treatment. The inhibitor used was compound 36 in Flanagan, et al, Bioorganic and Medicinal Chemistry (2014) p 962-977.
Proliferation data of TH compounds in H460 in the presence/absence of the specific AKR 1C3 inhibitor

[4] = NCI-H460, H460 cells, absence of specific AKR 1C3 inhibitor, read-out: IC50 (without inhibitor)
[5] = NCI-H460, H460 cells, presence of 3 micromolar specific AKR 1C3 inhibitor added 2 hours prior to compound treatment, read-out: IC50 (with inhibitor)

Compound: CS(=O)(=O)OCCN(CCBr)c1c(C(=O)NCCO)cc([N+](=O)[O-])cc1[N+](=O)[O-] [PR 104]
- substrate for AKR1C3 [1]: weak substrate
- efficacy in clinical trials [2]: ineffective

Compound: CC(=O)O[C@H]1C(=O)[C@@]2(C)[C@H]([C@H](OC(=O)c3ccccc3)[C@]3(O)C[C@H](OC(=O)[C@H](OC(=O)N(C)CCN(C)C(=O)OCc4ccc([N+](=O)[O-])c(Oc5ccc6ncccc6c5)c4)[C@@H](NC(=O)c4ccccc4)c4ccccc4)C(C)=C1C3(C)C)[C@]1(OC(C)=O)CO[C@@H]1C[C@@H]2O [TH3047]
- IC50 [3, 4]: 30 nM
- IC50 [3, 5]: 30000 nM

Compound: CC(=O)O[C@H]1C(=O)[C@@]2(C)[C@H]([C@H](OC(=O)c3ccccc3)[C@]3(O)C[C@H](OC(=O)[C@H](OC(=O)N(C)CCN(C)C(=O)OC(C)c4ccc([N+](=O)[O-])c(Oc5ccc6ncccc6c5)c4)[C@@H](NC(=O)c4ccccc4)c4ccccc4)C(C)=C1C3(C)C)[C@]1(OC(C)=O)CO[C@@H]1C[C@@H]2O (stereo partly shown) [TH3054]
- IC50 [3, 4]: 30 nM
- IC50 [3, 5]: 91000 nM

Compound: CCN(CCCCBr)P(=O)(OCc1ccc([N+](=O)[O-])c(Oc2ccc(-c3ccccc3)cc2)c1)OCC1OC(n2ccc(N)nc2=O)C(F)(F)C1O (stereo not shown) [TH3057]
- IC50 ([3]; NCI-H460, read-out: IC50 (without inhibitor)): 200 nM
